Laboratory results from patent publication US20240360122A1, “POLYMORPHIC FORMS AND SALTS OF A GLP-1R AGONIST” (Terns (Suzhou) Biotechnology Co., Ltd., priority 2023, published 2024).
Converted amounts (≈) assume the structure as drawn. Counter-ions that a name gives are not always drawn.

Experiments:
[1] = Competitive experiments of Type A and Type B in different solvent system at different temperature; format: physicochemical; settings: MeOH/MTBE system
[2] = Hygroscopicity by DVS at 25° C.; format: physicochemical
Protocol: DVS was measured via a SMS (Surface Measurement Systems) DVS Intrinsic. The relative humidity at 25° C. were calibrated against deliquescence point of LiCl, Mg(NO3)2 and KCl.

[3] = Kinetic solubility in water and bio-relevant media (SGF, FaSSIF, FeSSIF) at 37° C.; format: physicochemical; settings: for S: Solubility / FC: Form change: 37° C.; for S: Solubility: calculated by freeform; for FC: Form change: residual solids by XRPD
Protocol: Add 4 mL of medium (H2O, SGF, FaSSIF and FeSSIF). • Rolled at 37° C. (˜25 rpm). Sampling at 1, 2, 4 and 24 hrs. • At each time-point, sampled 0.8 mL of solution or suspension into a centrifuge tube prior to centrifugation (12000 rpm, 37° C., 5 min) and filtration through 0.45 μm PTFE membrane. • Tested pH and concentration for the filtrate. Analyze residual solids by XRPD.
0.1 g of NaCl and 0.05 g of Triton X-100 were weighed into a 50-mL volumetric flask. Purified water was added to dissolve the solid. 67.5 μL HCl (38%, 12M) was added after the solid was dissolved completely. pH was then adjusted to 1.8 using HCl (1 M) or NaOH (1 M). Purified water was added to the volume.
0.17 g of anhydrous NaH2PO4, 0.021 g of NaOH and 0.31 g of NaCl were weighed into a 50-mL volumetric flask. ˜48 mL purified water was added to dissolve the solid. pH was adjusted to 6.5 using 1M HCl or 1M NaOH. Purified water was then added to the volume. 0.11 g of SIF powder was added into the volumetric flask.
0.41 mL of acetic acid, 0.20 g of NaOH and 0.59 g of NaCl were weighed into a 50-mL volumetric flask. ˜48 mL purified water was added to dissolve the solid. pH was adjusted to 5.0 using 1M HCl or 1M NaOH. Purified water was then added to the volume. 0.56 g of SIF powder was added into the volumetric flask.

[4] = Solid state stability at 25° C./60% RH and 40° C./75% RH for 1 week; format: physicochemical; settings: for HPLC peak Area, RRT 1.00: main peak
Protocol: Each sample was added into a glass vial, sealed by parafilm with several holes, and kept under tested conditions. After one week, samples were taken for XRPD and HPLC purity test.

[5] = Approximate solubility in different solvents at RT; format: physicochemical; settings: RT; for solubility: organic solvent or mixture
Protocol: For each experiment, approximately 2 mg of sample was added into a 3-mL glass vial. Corresponding solvents were then added stepwise (50/50/200/700/1000 μL) into the vials until the solids were dissolved visually or a total volume of 2 mL was reached. Solubility results summarized in Table 64 to Table 66 were used to guide the solvent selection in polymorph screening design.

[6] = Characterization of Compound 1 freeform forms: form change on storage or drying (XRPD); format: physicochemical; settings: after storage at RT
Protocol: Starting from Compound 1 Freeform Type D, polymorph screening experiments were performed under 50 conditions using different solvent-mediated crystallization or solid transition methods. The obtained solids were characterized by XRPD. According to XRPD comparison results, a total of 16 crystal forms were discovered, named as Type A˜P. The characterization results of all the forms were listed in Table 60.
Freeform Type O was obtained after adding anti-solvent toluene into DMSO solution of Freeform Type D and drying at ambient conditions. After drying at RT under vacuum for 1 day, diffraction peaks of Freeform Type K were observed. As Freeform Type K was a DMSO solvate, it is speculated that Freeform Type O was also a DMSO solvate.

Protocol for physchem: 0.1 M KH2PO4 solution: added 1.36 g of solid KH2PO4 into a 100-mL volumetric flask, dissolve with ultrapure water and dilute to volume. 0.1 M K2HPO4 solution: added 1.74 g of solid K2HPO4 into a 100-mL volumetric flask, dissolve with ultrapure water and dilute to volume.
Transferred 100 mL of 0.1 M K2HPO4 solution and 30 mL of 0.1 M KH2PO4 to a 250-mL beaker and mix well. Adjusted to pH 7.4 with the KH2PO4 solution to obtain the aqueous pH 7.4 buffer. Pre-equilibrated n-octanol and aqueous buffer (phosphate pH 7.4 buffer) by adding 10 mL n-octanol and 10 mL aqueous buffer into a glass vial and keep it rolling for 24 hrs.
Weighed approximately 1.0 mg solids into a 3-mL glass vial which contained 2.0 mL of saturated n-octanol and accelerate dissolution by ultrasound sonication. Added 1.0 mL of complementary saturated aqueous buffer into the vial. Prepare samples in triplicate. Sealed the glass vial and mix on a rotary mixer at 25° C. for 24 hrs.
The phases were separated. The pH of the aqueous phase was measured by pH meter, and the concentrations of compounds in each phase were determined by HPLC. Samples in n-octanol phase were diluted 10 times by ACN. Distribution coefficient, referred to as Dow, was calculated as the concentration of the test compound in the n-octanol phase divided by the corresponding concentration in the aqueous phase.

N#Cc1ccc(COc2cccc(C3CCN(Cc4nc5ccc(C(=O)O)cc5n4Cc4cncs4)CC3)n2)c(F)c1 [Meglumine salt Type B]
thermodynamic stability, Type A versus Type B [1]: thermodynamically more stable

N#Cc1ccc(COc2cccc(C3CCN(Cc4nc5ccc(C(=O)O)cc5n4Cc4cncs4)CC3)n2)c(F)c1 [Potassium salt Type A]
water uptake (DVS) ([2]; 25° C./80% RH): 0.62% | hygroscopicity ([2]; DVS, 25° C.): slightly hygroscopic | Water uptake at 25° C./80% RH ([2]; DVS, 25° C./80% RH): 0.62 wt % | For change after DVS ([2]; XRPD after DVS test): No | form change after DVS test (XRPD) ([2]; after DVS test): no form change | S: Solubility ([3]; FaSSIF, 1 hr): 24 µg/mL | FC: Form change ([3]; FaSSIF, 1 hr): No | S: Solubility ([3]; FaSSIF, 2 hrs): 21 µg/mL | FC: Form change ([3]; FaSSIF, 2 hrs): No | S: Solubility ([3]; FaSSIF, 4 hrs): 22 µg/mL | FC: Form change ([3]; FaSSIF, 4 hrs): No | S: Solubility ([3]; FaSSIF, 24 hrs): 29 µg/mL | FC: Form change ([3]; FaSSIF, 24 hrs): Yes | S: Solubility ([3]; FeSSIF, 1 hr): 38 µg/mL | FC: Form change ([3]; FeSSIF, 1 hr): No | S: Solubility ([3]; FeSSIF, 2 hrs): 35 µg/mL | FC: Form change ([3]; FeSSIF, 2 hrs): No | S: Solubility ([3]; FeSSIF, 4 hrs): 34 µg/mL | FC: Form change ([3]; FeSSIF, 4 hrs): No | S: Solubility ([3]; FeSSIF, 24 hrs): 21 µg/mL | FC: Form change ([3]; FeSSIF, 24 hrs): Yes | S: Solubility ([3]; H2O, 1 hr): 920 µg/mL | FC: Form change ([3]; H2O, 1 hr): No | S: Solubility ([3]; H2O, 2 hrs): 1700 µg/mL | FC: Form change ([3]; H2O, 2 hrs): Yes | S: Solubility ([3]; H2O, 4 hrs): 3800 µg/mL | FC: Form change ([3]; H2O, 4 hrs): Yes | S: Solubility ([3]; H2O, 24 hrs): 4900 µg/mL | FC: Form change ([3]; H2O, 24 hrs): Yes | S: Solubility ([3]; SGF, 1 hr): 280 µg/mL | FC: Form change ([3]; SGF, 1 hr): Yes | S: Solubility ([3]; SGF, 2 hrs): 69 µg/mL | FC: Form change ([3]; SGF, 2 hrs): Yes | S: Solubility ([3]; SGF, 4 hrs): 39 µg/mL | FC: Form change ([3]; SGF, 4 hrs): Yes | S: Solubility ([3]; SGF, 24 hrs): 50 µg/mL | FC: Form change ([3]; SGF, 24 hrs): Yes | form change of residual solids (XRPD) after solubility test ([3]; all the media (H2O, SGF, FaSSIF, FeSSIF), after 24 hrs): form change was observed | HPLC peak Area, RRT 0.70 ([4]; 25° C./60% RH, 1 week): 0.06% | HPLC peak Area, RRT 0.73 ([4]; 25° C./60% RH, 1 week): 0.15% | HPLC peak Area, RRT 0.83 ([4]; 25° C./60% RH, 1 week): 1.80% | HPLC peak Area, RRT 0.90 ([4]; 25° C./60% RH, 1 week): 0.09% | HPLC peak Area, RRT 0.99 ([4]; 25° C./60% RH, 1 week): 0.06% | HPLC peak Area, RRT 1.05 ([4]; 25° C./60% RH, 1 week): 0.27% | HPLC peak Area, RRT 1.10 ([4]; 25° C./60% RH, 1 week): 0.67% | HPLC peak Area, RRT 1.11 ([4]; 25° C./60% RH, 1 week): 0.05% | HPLC peak Area, RRT 1.12 ([4]; 25° C./60% RH, 1 week): 0.06% | HPLC peak Area, RRT 1.15 ([4]; 25° C./60% RH, 1 week): 0.21% | HPLC peak Area, RRT 1.34 ([4]; 25° C./60% RH, 1 week): 0.10% | HPLC peak Area, RRT 1.00 ([4]; 25° C./60% RH, 1 week): 96.47% | Form change ([4]; 25° C./60% RH/Open/1 week): No | Purity ([4]; 25° C./60% RH/Open/1 week): 96.47 Area % | solid-state stability: form change and purity decrease ([4]; 25° C./60% RH/open and 40° C./75% RH/open, 1 week): no form change or significant purity decrease | HPLC peak Area, RRT 0.70 ([4]; 40° C./75% RH, 1 week): 0.05% | HPLC peak Area, RRT 0.73 ([4]; 40° C./75% RH, 1 week): 0.14% | HPLC peak Area, RRT 0.83 ([4]; 40° C./75% RH, 1 week): 1.78% | HPLC peak Area, RRT 0.90 ([4]; 40° C./75% RH, 1 week): 0.09% | HPLC peak Area, RRT 0.99 ([4]; 40° C./75% RH, 1 week): <0.05% | HPLC peak Area, RRT 1.05 ([4]; 40° C./75% RH, 1 week): 0.28% | HPLC peak Area, RRT 1.10 ([4]; 40° C./75% RH, 1 week): 0.66% | HPLC peak Area, RRT 1.11 ([4]; 40° C./75% RH, 1 week): 0.06% | HPLC peak Area, RRT 1.12 ([4]; 40° C./75% RH, 1 week): 0.06% | HPLC peak Area, RRT 1.15 ([4]; 40° C./75% RH, 1 week): 0.22% | HPLC peak Area, RRT 1.34 ([4]; 40° C./75% RH, 1 week): 0.07% | HPLC peak Area, RRT 1.00 ([4]; 40° C./75% RH, 1 week): 96.58% | Form change ([4]; 40° C./75% RH/Open/1 week): No | Purity ([4]; 40° C./75% RH/Open/1 week): 96.58 Area % | HPLC peak Area, RRT 0.70 ([4]; Initial): 0.05% | HPLC peak Area, RRT 0.73 ([4]; Initial): 0.16% | HPLC peak Area, RRT 0.83 ([4]; Initial): 1.84% | HPLC peak Area, RRT 0.90 ([4]; Initial): 0.09% | HPLC peak Area, RRT 0.99 ([4]; Initial): 0.05% | HPLC peak Area, RRT 1.05 ([4]; Initial): 0.27% | HPLC peak Area, RRT 1.10 ([4]; Initial): 0.70% | HPLC peak Area, RRT 1.11 ([4]; Initial): 0.05% | HPLC peak Area, RRT 1.12 ([4]; Initial): 0.06% | HPLC peak Area, RRT 1.15 ([4]; Initial): 0.22% | HPLC peak Area, RRT 1.34 ([4]; Initial): 0.10% | Purity ([4]; Initial): 96.41 Area % | HPLC peak Area, RRT 1.00 ([4]; Initial): 96.41%

N#Cc1ccc(COc2cccc(C3CCN(Cc4nc5ccc(C(=O)O)cc5n4Cc4cncs4)CC3)n2)c(F)c1 [Freeform Type A]
logP (physchem): 4.78 | logD at 24 h (physchem; pH 7.2): 1.96 | solubility ([5]; 1,4-Dioxane, thermodynamic from solid, 1,4-Dioxane): 1900 to 6300 µg/mL (≈ 3.26 to 10.8 mM) | solubility ([5]; 2-MeTHF, thermodynamic from solid): 1900 to 6300 µg/mL (≈ 3.26 to 10.8 mM) | solubility ([5]; ACN, thermodynamic from solid): 1000 to 1900 µg/mL (≈ 1.72 to 3.26 mM) | solubility ([5]; Anisole, thermodynamic from solid): 1100 to 2100 µg/mL (≈ 1.89 to 3.6 mM) | solubility ([5]; CPME, thermodynamic from solid): 1100 to 2100 µg/mL (≈ 1.89 to 3.6 mM) | solubility ([5]; DMSO, thermodynamic from solid): > 40000 µg/mL | solubility ([5]; EtOAc, thermodynamic from solid): 2000 to 6700 µg/mL (≈ 3.43 to 11.5 mM) | Approximate solubility ([5]; H2O): S < 1.1 mg/mL | solubility ([5]; IPA, thermodynamic from solid): 1100 to 2200 µg/mL (≈ 1.89 to 3.78 mM) | solubility ([5]; IPAc, thermodynamic from solid): 1000 to 1900 µg/mL (≈ 1.72 to 3.26 mM) | solubility ([5]; MIBK, thermodynamic from solid): 1000 to 2000 µg/mL (≈ 1.72 to 3.43 mM) | solubility ([5]; MTBE, thermodynamic from solid): < 1000 µg/mL | solubility ([5]; MeOH, thermodynamic from solid): 6700 to 20000 µg/mL (≈ 11.5 to 34.3 mM) | Approximate solubility ([5]; THF): S > 38.0 mg/mL | solubility ([5]; Toluene, thermodynamic from solid): < 1100 µg/mL | solubility ([5]; n-Heptane, thermodynamic from solid): < 1000 µg/mL

N#Cc1ccc(COc2cccc(C3CCN(Cc4nc5ccc(C(=O)O)cc5n4Cc4cncs4)CC3)n2)c(F)c1 [Freeform Type F]
Form change [6]: Change to Freeform Type J after storage at RT.
